For one data set, the system named is Trypanosoma cruzi. Nature of the data set: microbe, parasite or virus in culture. The following applies: Tulahuen, NIH3T3, 168 h.
A short description of another data set: physchem. The following applies: octanol/water.

A value given as a limit tells only on which side of the number the result lay.

Description for Trypanosoma cruzi: Antitrypanosomal activity against Trypanosoma cruzi Tulahuen infected in 3T3 cells after 7 days by beta-galactosidase assay
Description for physchem: Lipophilicity, log P of the compound

For `Cc1ccc(-c2ccc(Cn3cncc3CNc3ccc(-c4nc5ccccc5s4)c(-c4ccccc4)c3)cc2)cc1`, in the data set with Trypanosoma cruzi, the EC50 (as a rule, the concentration that produces a half-maximal response) is 50 nM. In “physchem”, the lipophilicity (logP) – broadly, the decadic logarithm of the partition coefficient of the neutral form, usually between octanol and water – was found to be 8.9.
In the data set with Trypanosoma cruzi, `Clc1ccc(NCc2cncn2Cc2ccc(-c3ccccc3)cc2Cl)cc1` registered an EC50 of 83.2 nM. The molecule also came in with a lipophilicity (logP) in “physchem” of 5.7.
On the same counts, the results for `Nc1cc(-c2ccccc2)ccc1Cn1cncc1CNc1ccc(Cl)c(Cl)c1` are 9 nM and 5.
Turning to `Cc1ncc(CNc2ccc(F)c(Cl)c2)n1Cc1ccc(-c2ccccc2)cc1N`, in the data set with Trypanosoma cruzi, the concentration for a half-maximal effect (EC50) was above 1000 nM. The molecule further gave a logP in the data set “physchem” of 4.6.
In the case of `Oc1ccccc1-c1ccc(Cn2cncc2CNc2ccc(-c3nc4ccccc4s3)c(-c3ccccc3)c2)cc1`, the response in the data set with Trypanosoma cruzi was half-maximal at 123 nM (EC50). In addition, the logP in “physchem” is 8.1.
Turning to `COc1cc(-c2ccccc2)ccc1Cn1cncc1CNc1ccc(Cl)c(-c2ccccc2)c1`, a half-maximal effect in the data set on Trypanosoma cruzi (EC50) was put at 35.1 nM. In addition, the lipophilicity (logP) in “physchem” turned out to be 6.6.
Consider `Cc1cc(NCc2cncn2Cc2ccc(-c3ccccc3)cc2F)ccc1F`, for which the EC50 with Trypanosoma cruzi turned out to be 53 nM. For the same molecule, the logP in the data set “physchem” is 5.3.
For `Nc1cc(Cl)ccc1Cn1cncc1CNc1ccc(-c2nc3ccccc3s2)c(-c2ccccc2)c1`, the EC50 in the data set on Trypanosoma cruzi worked out at 1.4 nM.
Take `c1ccc(-c2cc(NCc3cncn3Cc3ccc(-c4ccccn4)cc3)ccc2-c2nc3ccccc3s2)cc1`: the response in the data set with Trypanosoma cruzi was half-maximal at 19.3 nM (EC50). Also, the logP in “physchem” stood at 7.5.
In the case of `Nc1cc(-c2ccccc2)ccc1Cn1cncc1CNc1ccc(Cl)cc1`, the response in the data set on Trypanosoma cruzi was half-maximal at 2.1 nM (EC50). The same molecule gave a log partition coefficient (logP) in the data set “physchem” of 4.3.
Regarding `Nc1cc(-c2ccccc2)ccc1Cn1cncc1CNc1ccc(Cl)c(-n2cccc2)c1`, the EC50 in the data set with Trypanosoma cruzi turned out to be 3.8 nM. Besides, the logP in the data set “physchem” was determined as 4.8.
On the same counts, the results for `Cc1cc(NCc2cncn2Cc2ccc(-c3ccccc3)cc2Cl)ccc1F` are 26 nM and 5.8.
In the same order, the values of `c1ccc(-c2ccc(Cn3cncc3CNc3ccc(-c4nc5ccccc5s4)c(-c4ccccc4)c3)cc2)cc1` are 20 nM and 8.4.
As to `Nc1cc(-c2ccccc2)ccc1Cn1cncc1CNc1ccc(F)c(Cl)c1`, the 50% effective concentration (EC50) in the data set with Trypanosoma cruzi is 1.2 nM. In “physchem”, this molecule came in with a log partition coefficient (logP) of 4.3.
As to `Cc1cc(NCc2cnc(C)n2Cc2ccc(-c3ccccc3)cc2N)ccc1F`, in the data set with Trypanosoma cruzi, the EC50 was above 1000 nM. The lipophilicity (logP) in the data set “physchem” stood at 4.5.
With `Cc1ncc(CNc2ccc(F)c(F)c2)n1Cc1ccc(-c2ccccc2)cc1N`, the EC50 with Trypanosoma cruzi was above 1000 nM. For the same molecule, in “physchem”, the logP turned out to be 4.1.
Molecule `Nc1cc(-c2ccccc2)ccc1Cn1cncc1CNc1ccc(F)c(-c2c(F)cccc2F)c1` had an EC50 in the data set with Trypanosoma cruzi of 0.4 nM. The molecule further came in with a logP in “physchem” of 5.8.
In turn, `Fc1ccc(NCc2cncn2Cc2ccc(-c3ccccc3)cc2Cl)cc1F` had a half-maximal effective concentration (EC50) in the data set with Trypanosoma cruzi of 38.1 nM. Moreover, the logP in the data set “physchem” was found to be 5.4.
Turning to `Nc1cc(-c2ccccc2)ccc1Cn1cncc1CNc1ccc(Cl)c(-c2ccccc2N2CCOCC2)c1`, the concentration for a half-maximal effect (EC50) in the data set with Trypanosoma cruzi is 24.5 nM. Also, the log partition coefficient (logP) in “physchem” turned out to be 5.9.
As to `Clc1ccc(-c2ccc(Cn3cncc3CNc3ccc(-c4nc5ccccc5s4)c(-c4ccccc4)c3)cc2)cc1`, in the data set on Trypanosoma cruzi, the EC50 was found to be 48.5 nM. Further, the lipophilicity (logP) in the data set “physchem” was 9.
Molecule `Nc1cc(N2CCOCC2)ccc1Cn1cncc1CNc1ccc(F)c(F)c1` showed a concentration for a half-maximal effect (EC50) in the data set on Trypanosoma cruzi of 358 nM. In addition, in the data set “physchem”, the logP was 2.2.
For the molecule `Fc1ccc(NCc2cncn2Cc2ccc(F)cc2F)cc1`, the EC50 in the data set on Trypanosoma cruzi was determined as 354 nM. The molecule further returned a logP in “physchem” of 3.3.
Take `Clc1ccc(NCc2cncn2Cc2ccc(-c3ccccc3)cc2)cc1-c1cccnc1`: the half-maximal effective concentration (EC50) with Trypanosoma cruzi was determined as 64.8 nM. In “physchem”, the logP was 5.6.
On the same counts, the results for `Fc1ccc(NCc2cncn2Cc2ccc(-c3ccccc3)cc2Cl)cc1Cl` are 48.7 nM and 5.9.
In the data set on Trypanosoma cruzi, `COc1cc(-c2ccccc2)ccc1Cn1cncc1CNc1ccc(-c2nc3ccccc3s2)c(-c2ccccc2)c1` came in with an EC50 of 27.2 nM. The lipophilicity (logP) in the data set “physchem” stood at 8.2.
In the case of `Nc1ccccc1Cn1cncc1CNc1ccc(F)c(-c2ccccc2)c1`, in the data set on Trypanosoma cruzi, the concentration giving a half-maximal response (EC50) stood at 233 nM. The molecule also returned a log partition coefficient (logP) in the data set “physchem” of 3.8.
In the case of `Nc1cc(Cl)ccc1Cn1cncc1CNc1ccc(F)c(-c2ccccc2)c1`, the 50% effective concentration (EC50) with Trypanosoma cruzi stood at 12.8 nM. The molecule also registered a logP in “physchem” of 4.5.
The molecule `Oc1cc(-c2ccccc2)ccc1Cn1cncc1CNc1ccc(-c2nc3ccccc3s2)c(-c2ccccc2)c1` yielded an EC50 in the data set with Trypanosoma cruzi of 89.3 nM. In addition, the logP in the data set “physchem” was found to be 8.
In turn, `Fc1ccc(NCc2cncn2Cc2cccc3cc[nH]c23)cc1-c1ccccc1` had a 50% effective concentration (EC50) in the data set on Trypanosoma cruzi of 333 nM. The molecule further came in with a logP in “physchem” of 4.8.
In the same order, the values of `Nc1cc(-c2ccccc2)ccc1Cn1cncc1CNc1ccc(Cl)c(-c2ccccc2N2CCCCC2)c1` are 20.8 nM and 4.7.
The molecule `COc1ccc(Cn2cncc2CNc2ccc(F)c(-c3ccccc3)c2)c(N)c1` registered a 50% effective concentration (EC50) in the data set on Trypanosoma cruzi of 14.5 nM. In the data set “physchem”, the logP came to 4.7.
As for `c1ccc(-c2ccc(Cn3cncc3CNc3ccc(NCCN4CCOCC4)c(-c4ccccc4)c3)cc2)cc1`, it took 115 nM to reach a half-maximal effect with Trypanosoma cruzi (EC50). This molecule also came in with a lipophilicity (logP) in the data set “physchem” of 5.9.
In the same order, the values of `Nc1cc(-c2ccccc2)ccc1Cn1cncc1CNc1ccc(F)cc1` are 1.1 nM and 3.8.
On the same counts, the results for `Nc1cc(-c2ccccc2)ccc1Cn1cncc1CNc1ccc(F)c(F)c1` are 3.2 nM and 4.
`c1ccc(-c2cc(NCc3cncn3Cc3ccc(-c4ccco4)cc3)ccc2-c2nc3ccccc3s2)cc1`: the concentration giving a half-maximal response (EC50) in the data set on Trypanosoma cruzi came to 21.2 nM. Further, the logP in the data set “physchem” was 7.4.
Molecule `Fc1cc(-c2ccccc2)ccc1Cn1cncc1CNc1ccc(F)c(-c2ccccc2)c1` had an EC50 in the data set on Trypanosoma cruzi of 12 nM. For the same molecule, the lipophilicity (logP) in “physchem” amounted to 6.5.
In the same order, the values of `Cc1cc(NCc2cncn2Cc2ccc(F)cc2F)ccc1F` are 272 nM and 3.8.
`COc1ccc(NCc2cncn2Cc2ccccc2)nc1-c1ccccc1`: the half-maximal effective concentration (EC50) in the data set on Trypanosoma cruzi amounted to 686 nM. The logP in “physchem” was found to be 4.2.
Take `Cc1ncc(CNc2ccc(F)cc2)n1Cc1ccc(-c2ccccc2)cc1N`: in the data set with Trypanosoma cruzi, the EC50 is above 1000 nM. This molecule also yielded a log partition coefficient (logP) in the data set “physchem” of 4.
On the same counts, the results for `Clc1ccc(NCc2cncn2Cc2cccc3cc[nH]c23)cc1-c1ccccc1` are 333 nM and 5.2.
In the data set with Trypanosoma cruzi, `Fc1ccc(NCc2cncn2Cc2ccc(-c3ccccc3)cc2F)cc1` had an EC50 of 70.2 nM. The logP in the data set “physchem” was determined as 4.8.
As for `O=C(O)c1cc(-c2ccccc2)ccc1Cn1cncc1CNc1ccc(-c2nc3ccccc3s2)c(-c2ccccc2)c1`, the half-maximal effective concentration (EC50) in the data set on Trypanosoma cruzi is above 1000 nM. Further, the logP in the data set “physchem” was found to be 7.2.
In turn, `Clc1ccc(NCc2cncn2Cc2ccc(-c3ccccc3)cc2)cc1-n1cccc1` returned an EC50 in the data set on Trypanosoma cruzi of 30.4 nM. Further, the log partition coefficient (logP) in the data set “physchem” came out at 5.6.
Turning to `c1ccc(-c2ccc(Cn3cncc3CNc3ccc(OCCN4CCOCC4)c(-c4ccccc4)c3)cc2)cc1`, the response in the data set on Trypanosoma cruzi was half-maximal at 35.2 nM (EC50). Besides, the lipophilicity (logP) in “physchem” turned out to be 5.9.
The molecule `Nc1cc(-c2ccccc2)ccc1Cn1cncc1CNc1ccc(OCCN2CCOCC2)c(-c2ccc(Cl)cc2)c1` gave an EC50 with Trypanosoma cruzi of 1.5 nM.
In turn, `Fc1ccc(Cn2cncc2CNc2ccc(F)c(F)c2)c(F)c1` had an EC50 in the data set on Trypanosoma cruzi of 212 nM. Further, the logP in the data set “physchem” stood at 3.5.
`CC[C@@H]([C@H](C)O)n1ncn(-c2ccc(N3CCN(c4ccc(OC[C@@H]5CO[C@@](Cn6cncn6)(c6ccc(F)cc6F)C5)cc4)CC3)cc2)c1=O` [POSACONAZOLE] registered a concentration for a half-maximal effect (EC50) in the data set with Trypanosoma cruzi below 1 nM.
Consider `Fc1ccc(NCc2cncn2Cc2ccc(-c3ccccc3)cc2F)cc1F`, for which the concentration giving a half-maximal response (EC50) in the data set on Trypanosoma cruzi was 46 nM. For the same molecule, in “physchem”, the logP came out at 5.

These data come from ChEMBL document CHEMBL2439965, “Dialkylimidazole inhibitors of Trypanosoma cruzi sterol 14α-demethylase as anti-Chagas disease agents” (Bioorg Med Chem Lett, 2013).
